Measurements: patent publication US10392368B2, “Pyrazolo and triazolo bicyclic compounds as JAK kinase inhibitors” (THERAVANCE BIOPHARMA R&D IP, LLC, priority 2017, dated 2019)
Read-outs that look alike come from different tables or passages of the source.

Tests used:
[1] = target: T1, JAK1 (Homo sapiens, UniProt P23458); assay: Biochemical JAK1 kinase assay (LanthaScreen); conditions: for Ki: read-out: JAK 1 (pKi) (converted)
T1 construct: GST; purchased Life Technologies
Protocol: (§1) A panel of four LanthaScreen JAK biochemical assays (JAK1, 2, 3 and Tyk2) were carried in a common kinase reaction buffer (50 mM HEPES, pH 7.5, 0.01% Brij-35, 10 mM MgCl2, and 1 mM EGTA). Recombinant GST-tagged JAK enzymes and a GFP-tagged STAT1 peptide substrate were obtained from Life Technologies.
(§2) Serially or discretely diluted compounds were pre-incubated with each of the four JAK enzymes and the substrate in white 384-well microplates (Corning) at ambient temperature for 1 h. ATP was subsequently added to initiate the kinase reactions in 10 μL total volume, with 1% DMSO. […] Kinase reactions were allowed to proceed for 1 hour at ambient temperature before a 10 μL preparation of EDTA (10 mM final concentration) and Tb-anti-pSTAT1 (pTyr701) antibody (Life Technologies, 2 nM final concentration) in TR-FRET dilution buffer (Life Technologies) was added. The plates were allowed to incubate at ambient temperature for 1 h before being read on the EnVision reader (Perkin Elmer). Emission ratio signals (520 nm/495 nm) were recorded and utilized to calculate the percent inhibition values based on DMSO and background controls.
(§3) For dose-response analysis, percent inhibition data were plotted vs. compound concentrations, and IC50 values were determined from a 4-parameter robust fit model with the Prism software (GraphPad Software). Results were expressed as pIC50 (negative logarithm of IC50) and subsequently converted to pKi (negative logarithm of dissociation constant, Ki) using the Cheng-Prusoff equation.

[2] = test system: IL-2 stimulated pSTAT5 in Tall-1 T cells; assay: Cellular JAK3 potency assay: inhibition of IL-2 stimulated pSTAT5 in Tall-1 T cells; type: cell-based, human; conditions: for IC50: Homo sapiens, read-out: Tall-1 (pIC50) (converted)
Protocol: The potency of test compounds for inhibition of interleukin-2 (IL-2) stimulated STAT5 phosphorylation was measured in the Tall-1 human T cell line (DSMZ) using AlphaLisa. Because IL-2 signals through JAK3, this assay provides a measure of JAK3 cellular potency.
Compounds were serially diluted in DMSO and dispensed acoustically to empty wells. Assay media (phenol red-free DMEM (Life Technologies) supplemented with 10% FBS (ATCC)) was dispensed (4 μL/well) and plates shaken at 900 rpm for 10 mins. Cells were seeded at 45,000 cells/well in assay media (4 μL/well), and incubated at 37° C., 5% CO2 for 1 hour, followed by the addition of IL-2 (R&D Systems; final concentration 300 ng/ml) in pre-warmed assay media (4 μL) for 30 minutes. After cytokine stimulation, cells were lysed with 6 ul of 3× AlphaLisa Lysis Buffer (PerkinElmer) containing 1× PhosStop and Complete tablets (Roche). The lysate was shaken at 900 rpm for 10 minutes at room temperature (RT). Phosphorylated STAT5 was measured via the pSTAT5 AlphaLisa kit (PerkinElmer). Freshly prepared acceptor bead mixture was dispensed onto lysate (5 μL) under green filtered <100 lux light. Plates were shaken at 900 rpm for 2 mins, briefly spun down, and incubated for 2 hrs at RT in the dark. Donor beads were dispensed (5 μL) under green filtered <100 lux light. Plates were shaken at 900 rpm for 2 minutes, briefly spun down, and incubated overnight at RT in the dark.
To determine the inhibitory potency of test compounds in response to IL-2, the average emission intensity of beads bound to pSTAT5 was measured in a human T cell line. IC50 values were determined from analysis of the inhibition curves of signal intensity versus compound concentration. Data are expressed as pIC50 (negative decadic logarithm IC50) values (mean±standard deviation).

[3] = target: T2, JAK3 (Homo sapiens, UniProt P52333); assay: Biochemical JAK3 kinase assay (LanthaScreen); parameters: GST; purchased Life Technologies; conditions: for Ki: read-out: JAK 3 (pKi) (converted)
T2 sequence (P52333 1-1124): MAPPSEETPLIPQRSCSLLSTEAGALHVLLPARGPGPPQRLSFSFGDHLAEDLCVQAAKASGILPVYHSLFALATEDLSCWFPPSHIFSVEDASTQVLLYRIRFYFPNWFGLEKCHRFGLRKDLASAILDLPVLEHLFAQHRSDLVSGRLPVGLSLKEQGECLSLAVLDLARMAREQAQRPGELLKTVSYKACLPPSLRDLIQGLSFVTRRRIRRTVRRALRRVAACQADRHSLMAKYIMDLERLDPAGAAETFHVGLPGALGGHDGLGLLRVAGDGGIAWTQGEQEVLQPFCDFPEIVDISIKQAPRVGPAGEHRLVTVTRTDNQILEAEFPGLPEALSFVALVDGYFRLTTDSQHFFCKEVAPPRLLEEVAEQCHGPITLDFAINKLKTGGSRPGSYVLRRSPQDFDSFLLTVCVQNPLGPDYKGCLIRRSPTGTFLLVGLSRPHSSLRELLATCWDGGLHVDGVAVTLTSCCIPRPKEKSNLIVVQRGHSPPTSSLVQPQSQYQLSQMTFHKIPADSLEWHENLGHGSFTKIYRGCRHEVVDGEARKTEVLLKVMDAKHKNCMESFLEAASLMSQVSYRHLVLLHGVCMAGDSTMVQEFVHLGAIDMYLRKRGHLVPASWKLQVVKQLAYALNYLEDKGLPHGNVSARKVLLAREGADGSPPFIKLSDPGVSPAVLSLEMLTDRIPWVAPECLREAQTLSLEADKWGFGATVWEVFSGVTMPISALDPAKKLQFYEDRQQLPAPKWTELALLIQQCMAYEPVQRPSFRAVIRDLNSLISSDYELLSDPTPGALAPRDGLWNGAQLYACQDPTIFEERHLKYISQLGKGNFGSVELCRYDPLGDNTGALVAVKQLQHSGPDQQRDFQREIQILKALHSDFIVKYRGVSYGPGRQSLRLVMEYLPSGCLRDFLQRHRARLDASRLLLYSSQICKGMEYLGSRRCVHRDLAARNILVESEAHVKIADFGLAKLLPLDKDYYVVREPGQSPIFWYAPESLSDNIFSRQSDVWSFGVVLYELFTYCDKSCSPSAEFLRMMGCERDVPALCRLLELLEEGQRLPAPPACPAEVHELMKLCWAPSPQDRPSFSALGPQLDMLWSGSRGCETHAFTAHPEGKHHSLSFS
Protocol: as §1, §2, §3

[4] = IL-2 stimulated pSTAT5 in Tall-1 T cells
[5] = selectivity: difference of pKi JAK3 and pKi JAK1
[6] = TALL-1, IL-2 stimulated pSTAT5, Tall-1 T cells
[7] = selectivity JAK3 over JAK1, difference of pKi
[8] = IL-2 stimulated pSTAT5, Tall-1 T cells
[9] = TALL-1, IL-2 stimulated pSTAT5 in Tall-1 T cells

T1 sequence (P23458 whole entry): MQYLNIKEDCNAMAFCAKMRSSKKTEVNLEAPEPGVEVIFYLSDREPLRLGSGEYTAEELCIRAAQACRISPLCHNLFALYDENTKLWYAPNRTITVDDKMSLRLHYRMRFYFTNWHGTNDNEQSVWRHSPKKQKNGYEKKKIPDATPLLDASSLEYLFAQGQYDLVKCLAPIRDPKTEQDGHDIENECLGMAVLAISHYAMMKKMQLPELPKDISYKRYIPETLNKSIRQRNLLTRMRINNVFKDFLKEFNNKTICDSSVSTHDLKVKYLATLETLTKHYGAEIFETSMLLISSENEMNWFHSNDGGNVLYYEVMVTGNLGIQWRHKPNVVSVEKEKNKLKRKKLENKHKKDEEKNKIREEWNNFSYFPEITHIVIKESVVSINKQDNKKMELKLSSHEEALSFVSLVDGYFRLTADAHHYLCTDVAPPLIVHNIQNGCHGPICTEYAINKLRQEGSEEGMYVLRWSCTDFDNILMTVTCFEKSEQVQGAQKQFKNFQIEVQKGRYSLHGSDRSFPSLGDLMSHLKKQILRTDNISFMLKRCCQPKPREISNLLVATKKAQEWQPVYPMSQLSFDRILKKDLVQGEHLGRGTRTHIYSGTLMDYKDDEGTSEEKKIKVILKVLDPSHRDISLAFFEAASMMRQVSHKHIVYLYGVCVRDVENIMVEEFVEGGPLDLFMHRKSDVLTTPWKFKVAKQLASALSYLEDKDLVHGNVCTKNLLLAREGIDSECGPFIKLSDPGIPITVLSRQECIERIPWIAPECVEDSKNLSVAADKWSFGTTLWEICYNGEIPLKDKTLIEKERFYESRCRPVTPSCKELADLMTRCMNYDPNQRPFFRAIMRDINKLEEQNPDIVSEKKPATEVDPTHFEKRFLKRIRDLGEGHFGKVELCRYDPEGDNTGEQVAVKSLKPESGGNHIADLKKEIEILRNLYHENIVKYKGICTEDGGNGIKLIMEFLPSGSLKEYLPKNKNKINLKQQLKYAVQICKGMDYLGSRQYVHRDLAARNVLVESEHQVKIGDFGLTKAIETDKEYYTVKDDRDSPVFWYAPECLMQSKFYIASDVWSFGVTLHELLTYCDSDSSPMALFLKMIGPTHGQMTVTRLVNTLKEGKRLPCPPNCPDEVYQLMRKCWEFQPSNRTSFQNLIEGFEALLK

SMILES	JAK 1 (pKi) [1]	Tall-1 (pIC50) [2, 4]	JAK 3 (pKi) [3]	JAK3 (pKi)-JAK1 (pKi) [3, 5]	Ki [1] [µM]	IC50 [2, 6] [µM]	Ki [3] [µM]	JAK3 (pKi)-JAK1 (pKi) [3, 7]	Tall-1 (pIC50) [2, 8]	IC50 [2, 9] [µM]
CN(C)C/C=C/C(=O)N1CC(Oc2cc(-c3ccc(O)cc3)cc3[nH]ncc23)C1 [Compound 5-1]	E (a pKi value of 7 or below (Ki of 100 nM or above))	C (a pIC50 value between 6 and 6.7 (IC50 between 1 μM and 200 nM))	B (a pKi value between 9 and 10 (Ki between 1 nM and 0.1 nM))	A (a value of 3 or above)						
C=CC(=O)N1CC(COc2cc(-c3ccc(O)cc3)cc3[nH]nc(C)c23)C1 [Compound 18-5]					0.01 to 0.1	< 0.0316	0.0001 to 0.001	B (a value of 2.3 to 3)		
C=CC(=O)N1CCC(C(=O)Nc2cc(-c3ccc(O)cc3)cc3[nH]ncc23)CC1 [Compound 12-59]					> 0.1	0.0316 to 0.2	< 0.0001	A (a value of 3 or above)		
CN(C)C/C=C/C(=O)N1CC2(CC(Oc3nc(-c4ccc(O)cc4)cc4[nH]ncc34)C2)C1 [Compound 15-6]	D (a pKi value between 7 and 8 (Ki between 100 nM and 10 nM))		A (a pKi value≥10 (Ki≤0.1 nM))					B (a value of 2.3 to 3)	C (a pIC50 value between 6 and 6.7 (IC50 between 1 μM and 200 nM))	
C=CC(=O)N1C[C@@H](Oc2cc(-c3ccc(O)cc3)cc3[nH]ncc23)C[C@@H]1C [Compound 1-12]				A (a value of 3 or above)	> 0.1		0.0001 to 0.001			0.0316 to 0.2
C=CC(=O)N1CC(F)(COc2nc(-c3ccc(O)cc3)cc3[nH]ncc23)C1 [Compound 3-90]				B (a value of 2.3 to 3)	0.01 to 0.1		< 0.0001			< 0.0316
C=CC(=O)N1C2CCC1CC(Oc1nc(-c3ccc(O)cc3)nc3[nH]ncc13)C2 (stereo not drawn) [Compound 9-11]	E (a pKi value of 7 or below (Ki of 100 nM or above))		A (a pKi value≥10 (Ki≤0.1 nM))					A (a value of 3 or above)	B (a pIC50 value between 6.7 (included) and 7.5 (IC50 between 200 nM and 32 nM))	
CN(C)CC=CC(=O)N1C2CCC1CC(Oc1cc(-c3ccc(O)cc3)cc3[nH]ncc13)C2 (stereo not drawn) [Compound 10-1]	D (a pKi value between 7 and 8 (Ki between 100 nM and 10 nM))		A (a pKi value≥10 (Ki≤0.1 nM))					B (a value of 2.3 to 3)	B (a pIC50 value between 6.7 (included) and 7.5 (IC50 between 200 nM and 32 nM))	
C=CC(=O)N1CCC(Oc2nc(-c3ccc(O)cc3)nc3[nH]ncc23)CC1 [Compound 6-12]					> 0.1	0.0316 to 0.2	0.0001 to 0.001	A (a value of 3 or above)		
C#CC(=O)N1CC(COc2cc(-c3ccc(O)cc3)cc3[nH]ncc23)C1 [Compound 3-84]				A (a value of 3 or above)	> 0.1		< 0.0001			0.0316 to 0.2
CN(C)C/C=C/C(=O)N1CCC(COc2cc(-c3ccc(O)c(F)c3)cc3[nH]ncc23)CC1 [Compound 14-4]	D (a pKi value between 7 and 8 (Ki between 100 nM and 10 nM))		B (a pKi value between 9 and 10 (Ki between 1 nM and 0.1 nM))					B (a value of 2.3 to 3)	B (a pIC50 value between 6.7 (included) and 7.5 (IC50 between 200 nM and 32 nM))	
C=CC(=O)N1CCC[C@@H](C(=O)Nc2cc(-c3ccc(O)cc3)cc3[nH]ncc23)C1 [Compound 12-55]					> 0.1	0.0316 to 0.2	< 0.0001	A (a value of 3 or above)		
C=CC(=O)N1CC[C@H](Oc2nc(-c3ccc(O)c(Cl)c3)nc3[nH]nc(C)c23)C1 [Compound 1-37]				A (a value of 3 or above)	> 0.1		0.0001 to 0.001			0.2 to 1
C=CC(=O)N1CC(CC)(COc2cc(-c3ccc(O)cc3)cc3[nH]ncc23)C1 [Compound 3-14]	E (a pKi value of 7 or below (Ki of 100 nM or above))	B (a pIC50 value between 6.7 (included) and 7.5 (IC50 between 200 nM and 32 nM))	B (a pKi value between 9 and 10 (Ki between 1 nM and 0.1 nM))	A (a value of 3 or above)						
CN(C)C/C=C/C(=O)N1CC(Oc2cc(-c3ccc(O)cc3)cc3[nH]ncc23)(C(F)(F)F)C1 [Compound 5-25]	E (a pKi value of 7 or below (Ki of 100 nM or above))		B (a pKi value between 9 and 10 (Ki between 1 nM and 0.1 nM))					A (a value of 3 or above)	A (a pIC50 value≥7.5 (IC50≤32 nM))	
C=CC(=O)N1CC[C@H](Oc2cc(-c3ccc(O)c(Cl)c3)nc3[nH]nc(C)c23)C1 [Compound 1-32]				A (a value of 3 or above)	> 0.1		0.0001 to 0.001			0.2 to 1
C=CC(=O)N1CC2(CCC2Oc2nc(-c3ccc(O)c(F)c3)nc3[nH]ncc23)C1 (stereo not drawn) [Compound 13-18]	E (a pKi value of 7 or below (Ki of 100 nM or above))		B (a pKi value between 9 and 10 (Ki between 1 nM and 0.1 nM))					A (a value of 3 or above)	B (a pIC50 value between 6.7 (included) and 7.5 (IC50 between 200 nM and 32 nM))	
C=CC(=O)N1CCC[C@H](Oc2nc(-c3ccc(O)c(F)c3)nc3[nH]ncc23)C1 [Compound 8-13]	E (a pKi value of 7 or below (Ki of 100 nM or above))		B (a pKi value between 9 and 10 (Ki between 1 nM and 0.1 nM))					A (a value of 3 or above)	C (a pIC50 value between 6 and 6.7 (IC50 between 1 μM and 200 nM))	
